Data published in ChEMBL document CHEMBL3885881, “DrugMatrix”.

Species on record: Rattus norvegicus
Assay: DrugMatrix - Regimen: Daily Repeat
Type: toxicity, organism-based, Sprague-Dawley
Parameters: regimen Daily Repeat, gender Male, age 6-8 weeks
Conditions: in vivo, po, route oral GAVAGE, vehicle 100 % WATER; for ABSOLUTE BASOPHIL / ABSOLUTE EOSINOPHIL / ABSOLUTE LYMPHOCYTE / ABSOLUTE MONOCYTE / ABSOLUTE SEGMENTED NEUTROPHIL / BASOPHIL / EOSINOPHIL / ERYTHROCYTE COUNT / HEMATOCRIT / HEMOGLOBIN / LEUKOCYTE COUNT / LYMPHOCYTE / MEAN CORPUSCULAR HEMOGLOBIN / MEAN CORPUSCULAR HEMOGLOBIN CONCENTRATION / MEAN CORPUSCULAR VOLUME / MONOCYTE / NEUTROPHIL / NUCLEATED RED BLOOD CELLS / PLATELET COUNT: tissue Blood; for ALANINE AMINOTRANSFERASE / ALBUMIN / ALKALINE PHOSPHATASE / ASPARTATE AMINOTRANSFERASE / BLOOD UREA NITROGEN / CARBON DIOXIDE / CHLORIDE / CHOLESTEROL / CREATINE PHOSPHOKINASE / CREATININE / GLUCOSE / LACTATE DEHYDROGENASE / LIPASE / PHOSPHORUS / POTASSIUM / SODIUM / TOTAL BILIRUBIN / TOTAL PROTEIN / URIC ACID: tissue Plasma
[1] = 0 mg/kg, 72 h, dose level Control, time 3 day
[2] = 0 mg/kg, 120 h, dose level Control, time 5 day
[3] = 5 mg/kg, 72 h, dose level Low, time 3 day

## C[N+](C)(C)CCOC(N)=O.[Cl-] [CARBACHOL]
[1]
  ABSOLUTE BASOPHIL: 0 CELLS/uL
  ABSOLUTE EOSINOPHIL: 0 CELLS/uL
  ABSOLUTE LYMPHOCYTE: 8482.5 CELLS/uL
  ABSOLUTE MONOCYTE: 63.83 CELLS/uL
  ABSOLUTE SEGMENTED NEUTROPHIL: 887 CELLS/uL
  BASOPHIL: 0%
  EOSINOPHIL: 0%
  ERYTHROCYTE COUNT: 5.49 x10E6/uL
  HEMATOCRIT: 34.5%
  HEMOGLOBIN: 13.33 G/DL
  LEUKOCYTE COUNT: 9.43 x10E3/uL
  LYMPHOCYTE: 90.17%
  MEAN CORPUSCULAR HEMOGLOBIN: 24.3 pg
  MEAN CORPUSCULAR HEMOGLOBIN CONCENTRATION: 38.63 G/DL
  MEAN CORPUSCULAR VOLUME: 62.88 fL
  MONOCYTE: 0.67%
  NEUTROPHIL: 9.17%
  NUCLEATED RED BLOOD CELLS: 0.67 /100WBC
  PLATELET COUNT: 1022.83 x10E3/uL
  ALANINE AMINOTRANSFERASE: 50.5 u/L
  ALBUMIN: 4.08 G/DL
  ALKALINE PHOSPHATASE: 368.33 u/L
  ASPARTATE AMINOTRANSFERASE: 87.5 u/L
  BLOOD UREA NITROGEN: 12.83 mg/dL
  CARBON DIOXIDE: 32.83 mmol/L
  CHLORIDE: 99.67 MEQ/L
  CHOLESTEROL: 79.67 mg/dL
  CREATINE PHOSPHOKINASE: 585 u/L
  CREATININE: 0.22 mg/dL
  GLUCOSE: 135.67 mg/dL
  LACTATE DEHYDROGENASE: 171 u/L
  LIPASE: 9.5 u/L
  PHOSPHORUS: 11.18 mg/dL
  POTASSIUM: 6.25 MEQ/L
  SODIUM: 144.87 MEQ/L
  TOTAL BILIRUBIN: 0.2 mg/dL
  TOTAL PROTEIN: 6.08 G/DL
  URIC ACID: 0.65 mg/dL
[2]
  ABSOLUTE BASOPHIL: 0 CELLS/uL
  ABSOLUTE EOSINOPHIL: 14.5 CELLS/uL
  ABSOLUTE LYMPHOCYTE: 7596.17 CELLS/uL
  ABSOLUTE MONOCYTE: 69.67 CELLS/uL
  ABSOLUTE SEGMENTED NEUTROPHIL: 503 CELLS/uL
  BASOPHIL: 0%
  EOSINOPHIL: 0.17%
  ERYTHROCYTE COUNT: 5.49 x10E6/uL
  HEMATOCRIT: 34.72%
  HEMOGLOBIN: 13.47 G/DL
  LEUKOCYTE COUNT: 8.18 x10E3/uL
  LYMPHOCYTE: 92.17%
  MEAN CORPUSCULAR HEMOGLOBIN: 24.57 pg
  MEAN CORPUSCULAR HEMOGLOBIN CONCENTRATION: 38.82 G/DL
  MEAN CORPUSCULAR VOLUME: 63.3 fL
  MONOCYTE: 1%
  NEUTROPHIL: 6.67%
  NUCLEATED RED BLOOD CELLS: 0 /100WBC
  PLATELET COUNT: 1141 x10E3/uL
  ALANINE AMINOTRANSFERASE: 48.33 u/L
  ALBUMIN: 4.07 G/DL
  ALKALINE PHOSPHATASE: 395.67 u/L
  ASPARTATE AMINOTRANSFERASE: 85.67 u/L
  BLOOD UREA NITROGEN: 15.83 mg/dL
  CARBON DIOXIDE: 31.33 mmol/L
  CHLORIDE: 100.83 MEQ/L
  CHOLESTEROL: 62.33 mg/dL
  CREATINE PHOSPHOKINASE: 248.33 u/L
  CREATININE: 0.2 mg/dL
  GLUCOSE: 135.67 mg/dL
  LACTATE DEHYDROGENASE: 141.33 u/L
  LIPASE: 9.5 u/L
  PHOSPHORUS: 10.73 mg/dL
  POTASSIUM: 6.07 MEQ/L
  SODIUM: 145.35 MEQ/L
  TOTAL BILIRUBIN: 0.22 mg/dL
  TOTAL PROTEIN: 6.12 G/DL
  URIC ACID: 0.63 mg/dL
[3]
  ABSOLUTE BASOPHIL: 0 CELLS/uL
  ABSOLUTE EOSINOPHIL: 50.33 CELLS/uL
  ABSOLUTE LYMPHOCYTE: 10617 CELLS/uL
  ABSOLUTE MONOCYTE: 63 CELLS/uL
  ABSOLUTE SEGMENTED NEUTROPHIL: 603 CELLS/uL
  BASOPHIL: 0%
  EOSINOPHIL: 0.33%
  ERYTHROCYTE COUNT: 5.09 x10E6/uL
  HEMATOCRIT: 32.27%
  HEMOGLOBIN: 12.67 G/DL
  LEUKOCYTE COUNT: 11.33 x10E3/uL
  LYMPHOCYTE: 93.67%
  MEAN CORPUSCULAR HEMOGLOBIN: 24.9 pg
  MEAN CORPUSCULAR HEMOGLOBIN CONCENTRATION: 39.3 G/DL
  MEAN CORPUSCULAR VOLUME: 63.33 fL
  MONOCYTE: 0.67%
  NEUTROPHIL: 5.33%
  NUCLEATED RED BLOOD CELLS: 0 /100WBC
  PLATELET COUNT: 1098.33 x10E3/uL
  ALANINE AMINOTRANSFERASE: 65.67 u/L
  ALBUMIN: 3.93 G/DL
  ALKALINE PHOSPHATASE: 297.33 u/L
  ASPARTATE AMINOTRANSFERASE: 89.67 u/L
  BLOOD UREA NITROGEN: 12 mg/dL
  CARBON DIOXIDE: 33.67 mmol/L
  CHLORIDE: 98.33 MEQ/L
  CHOLESTEROL: 74.67 mg/dL
  CREATINE PHOSPHOKINASE: 369.33 u/L
  CREATININE: 0.19 mg/dL
  GLUCOSE: 134 mg/dL
  LACTATE DEHYDROGENASE: 123 u/L
  LIPASE: 11 u/L
  PHOSPHORUS: 11.1 mg/dL
  POTASSIUM: 5.93 MEQ/L
  SODIUM: 144.17 MEQ/L
  TOTAL BILIRUBIN: 0.13 mg/dL
  TOTAL PROTEIN: 5.83 G/DL
  URIC ACID: 0.53 mg/dL
